# Data from publication PMC7830893, “Four Novel Phenanthrene Derivatives with α-Glucosidase Inhibitory Activity from Gastrochilus bellinus” (Molecules, 2021).
# “Also recorded” adds a separate entry of the source.
# Assays:
# α-glucosidase [1] = test: α-glucosidase enzyme kinetic study (Lineweaver–Burk and secondary plots); assay type: biochemical; conditions: for mode of enzyme inhibition: Lineweaver–Burk plot
# Procedure: The enzyme kinetics parameters (Km and Vmax) were determined by analyzing the double reciprocal Lineweaver–Burk plot (1/V vs. 1/[S]). Each experiment was carried out by varying the concentration of pNPG (2.0, 1.0, 0.5, and 0.25 mM) in the absence and presence of different concentrations of the test sample. The reaction was monitored at 405 nm by a microplate reader every 5 min for a total time of 25 min. Each experiment was performed in triplicate. […] For compound 3, secondary plots were plots of the inverted values of Km (1/Km) as a function of inhibitor concentration. The inhibition constant (Ki) was then calculated from the intersection point.
# α-glucosidase [2] = test: α-glucosidase inhibitory assay (pNPG, absorbance at 405 nm); assay type: biochemical; conditions: for α-glucosidase inhibitory activity compared with acarbose: comparison with the drug acarbose; for IC50: pNPG substrate, 37 °C, mean ± SD, triplicate
# Procedure: The α-glucosidase enzyme inhibition assay was carried out according to the method in our previous report. The inhibitory activity was determined by measuring the p-nitrophenol, a yellow color substance that can be monitored at 405 nm, released from p-nitrophenyl-α-D-glucopyranoside (pNPG) by the α-glucosidase enzyme. The test samples were initially dissolved in 50% DMSO, and then, 10 µL of the sample solution and 40 µL of 0.1 unit/mL α-glucosidase were incubated at 37 °C for 10 min. After that, to start the reaction, 50 µL of 2 mM pNPG was added to the mixture and incubated at 37 °C for 20 min. One hundred microliters of 1 M Na2CO3 was added to stop the reaction, and then, the absorbance was measured at 405 nm. […] Each experiment was performed in triplicate.
IC50 (α-glucosidase [2]) [µM],Compound,α-glucosidase inhibitory activity compared with acarbose (α-glucosidase [2]),further results
–,"C[C@H]1O[C@H](O[C@H]2[C@H](O)[C@@H](O)[C@@H](O[C@H]3[C@H](O)[C@@H](O)C(O)O[C@@H]3CO)O[C@@H]2CO)[C@H](O)[C@@H](O)[C@@H]1N[C@H]1C=C(CO)[C@@H](O)[C@H](O)[C@H]1O (some centres unmarked) [Acarbose, acarbose, reference compound]",–,mode of enzyme inhibition (α-glucosidase [1]): competitive inhibition; Vmax (α-glucosidase [1]; inhibitor dose 387 µM): 0.1 ∆ A405/min; Vmax (α-glucosidase [1]; inhibitor dose 744 µM): 0.1 ∆ A405/min
88.7 ± 4.1,"COc1c(O)cc2c3c1COc1c(Cc4ccc(O)cc4)c(O)cc(c1-3)CC2 [Compound 1, gastrobellinol A]",higher activity than the drug acarbose; also recorded: higher α-glucosidase inhibitory activity than acarbose,–
381 ± 9.3,"COc1cc(/C=C/C=O)ccc1O [Compound 7, coniferyl aldehyde]",higher activity than the drug acarbose; also recorded: higher α-glucosidase inhibitory activity than acarbose,–
–,"O=Cc1ccc(O)cc1 [Compound 8, 4-hydroxybenzaldehyde]",higher α-glucosidase inhibitory activity than acarbose,–
53.7 ± 12.5,"COc1c(O)cc2c3c1COc1cc(O)c(Cc4ccc(O)cc4)c(c1-3)CC2 [Compound 13, 1-(4′-hydroxybenzyl)-imbricartin]",higher activity than the drug acarbose; also recorded: higher α-glucosidase inhibitory activity than acarbose,–
301 ± 6.6,"COc1c(O)cc2c3c1COc1cc(O)cc(c1-3)CC2 [Compound 15, imbricatin]",higher activity than the drug acarbose; also recorded: higher α-glucosidase inhibitory activity than acarbose,–

Compound,IC50 (α-glucosidase [2]) [µM],α-glucosidase inhibitory activity compared with acarbose (α-glucosidase [2]),further results
"COc1cc2c3c(ccc4cc(O)c(OC)c(c43)CO2)c1Cc1ccc(O)cc1 [Compound 2, gastrobellinol B]",97.8 ± 3.1,higher activity than the drug acarbose; also recorded: higher α-glucosidase inhibitory activity than acarbose,–
"COc1c(O)cc2ccc3c(Cc4ccc(O)cc4)c(O)cc4c3c2c1CO4 [Compound 3, gastrobellinol C]",45.9 ± 2.8,higher activity than the drug acarbose; also recorded: higher α-glucosidase inhibitory activity than acarbose,"mode of enzyme inhibition (α-glucosidase [1]): competitive inhibition; also recorded: competitive inhibitor; Ki (α-glucosidase [1]; from secondary plot): 87.3 µM; Vmax (α-glucosidase [1]; inhibitor dose 20 µM, pNPG 0.25–2.0 mM): 0.1 ∆ A405/min; Vmax (α-glucosidase [1]; inhibitor dose 40 µM, pNPG 0.25–2.0 mM): 0.1 ∆ A405/min; maximum velocity (Vmax) (α-glucosidase [1]; unchanged at 20 µM and 40 µM compound 3): 0.1 A405/min"
"COc1cc2ccc3cc(O)c(OC)c4c(=O)oc(c1)c2c34 [Compound 9, agrostophyllone]",281 ± 15.9,higher activity than the drug acarbose,–
